Measured values as given in ChEMBL document CHEMBL1201862, “PubChem BioAssay data set” (2004).
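All cell lines were grown in 96-well plates and treated with compound for 48 hours. GI50 is the concentration that inhibits growth by half.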 The source made the active and inactive calls. Cut-off read from the data, not from the text of the source: active = GI50 up to about 1.1 µM and inactive = higher.

Assays:
Experiment in all cases: growth of human tumour cells (NCI), 48 h
HOP-92 = system: HOP-92
CCRF-CEM = system: CCRF-CEM
ACHN = system: ACHN
A498 = system: A498
RPMI-8226 = system: RPMI-8226
NCI-H460 = system: NCI-H460
CAKI-1 = system: CAKI-1
NCI-H522 = system: NCI-H522
RXF 393 = system: RXF 393
MOLT-4 = system: MOLT-4
SF-539 = system: SF-539
SK-OV-3 = system: SK-OV-3
K562 = system: K562
LOX IMVI = system: LOX IMVI
NCI-H23 = system: NCI-H23
UACC-62 = system: UACC-62
EKVX = system: EKVX

Measured: GI50

COc1ccc(C2S/C(=C\c3cccc([N+](=O)[O-])c3)C(=O)N2NC(=O)Cc2ccccc2)cc1 (centres undefined)
inactive: HOP-92 > 100 µM | CCRF-CEM > 100 µM | ACHN > 100 µM | A498 > 100 µM | RPMI-8226 > 100 µM | NCI-H460 > 100 µM | CAKI-1 > 100 µM | NCI-H522 > 100 µM | RXF 393 > 100 µM | MOLT-4 > 100 µM | SF-539 > 100 µM | SK-OV-3 > 100 µM | K562 > 100 µM | LOX IMVI > 100 µM | NCI-H23 > 100 µM | UACC-62 > 100 µM

COc1ccc(C(=O)C(C(=O)C(=O)Nc2nccs2)c2ccc(OC)cc2)cc1 (centres undefined)
inactive: HOP-92 > 100 µM | CCRF-CEM > 100 µM | ACHN > 100 µM | A498 > 100 µM | RPMI-8226 > 100 µM | NCI-H460 > 100 µM | CAKI-1 > 100 µM | NCI-H522 92 µM | RXF 393 80.9 µM | MOLT-4 > 100 µM | SF-539 > 100 µM | SK-OV-3 > 100 µM | K562 > 100 µM | LOX IMVI > 100 µM | NCI-H23 > 100 µM | UACC-62 > 100 µM

CC1=C(C(=O)Nc2cc(F)c(F)cc2F)C(c2ccc3c(c2)OCO3)C(C(=O)Nc2cc(F)c(F)cc2F)=C(C)N1
inactive: HOP-92 2.72 µM | CCRF-CEM 19.5 µM | ACHN 19.1 µM | A498 21 µM | RPMI-8226 16 µM | NCI-H460 25.2 µM | CAKI-1 11.8 µM | NCI-H522 14.9 µM | RXF 393 11.5 µM | MOLT-4 14.2 µM | SF-539 27.5 µM | SK-OV-3 19.4 µM | K562 17.9 µM | LOX IMVI 14.4 µM | NCI-H23 19.8 µM | EKVX 18 µM

C[C@@H]1CC(=O)C2CCCC1C2=O (some centres undefined)
inactive: HOP-92 > 100 µM | CCRF-CEM > 100 µM | ACHN > 100 µM | A498 > 100 µM | RPMI-8226 > 100 µM | NCI-H460 > 100 µM | CAKI-1 > 100 µM | NCI-H522 > 100 µM | RXF 393 > 100 µM | MOLT-4 > 100 µM | SF-539 > 100 µM | SK-OV-3 > 100 µM | LOX IMVI > 100 µM | UACC-62 > 100 µM | EKVX > 100 µM

O=C(CCC(=O)Nc1cccc(C(F)(F)F)c1)CC(=O)c1ccc2ccccc2c1
inactive: HOP-92 > 100 µM | CCRF-CEM > 100 µM | ACHN > 100 µM | A498 > 100 µM | RPMI-8226 > 100 µM | NCI-H460 > 100 µM | CAKI-1 > 100 µM | NCI-H522 > 100 µM | MOLT-4 > 100 µM | SF-539 > 100 µM | SK-OV-3 > 100 µM | K562 > 100 µM | LOX IMVI > 100 µM | NCI-H23 > 100 µM | UACC-62 > 100 µM | EKVX > 100 µM

COc1cc2cc(OC)c3cc4c(cc3c2c(OC)c1OC)OCO4
inactive: HOP-92 > 46 µM | CCRF-CEM 15 µM | ACHN 52.5 µM | A498 > 45.5 µM | RPMI-8226 14.7 µM | NCI-H460 17.6 µM | CAKI-1 33 µM | NCI-H522 18 µM | RXF 393 42.9 µM | MOLT-4 22.8 µM | SF-539 31.6 µM | SK-OV-3 > 64.9 µM | K562 9.46 µM | LOX IMVI 15.5 µM | NCI-H23 39.8 µM | UACC-62 19.3 µM | EKVX 50.6 µM

C1CCOC2(CCC3(CC2)OCCCCO3)OC1
inactive: CCRF-CEM > 100 µM | ACHN > 100 µM | A498 > 100 µM | RPMI-8226 > 100 µM | NCI-H460 > 100 µM | CAKI-1 > 100 µM | NCI-H522 > 100 µM | RXF 393 > 100 µM | MOLT-4 > 100 µM | SF-539 > 100 µM | SK-OV-3 > 100 µM | K562 > 100 µM | UACC-62 > 100 µM

CCCC(O)[C@@H](O)c1ccc2c(c1O)C(=O)c1c(OC)cccc1C2=O (some centres undefined)
inactive: HOP-92 58.2 µM | CCRF-CEM 31.3 µM | ACHN 34.4 µM | A498 34.5 µM | RPMI-8226 5.73 µM | NCI-H460 29 µM | CAKI-1 27.8 µM | NCI-H522 16.1 µM | MOLT-4 21.1 µM | SF-539 24.2 µM | SK-OV-3 24.1 µM | K562 34.3 µM | LOX IMVI 27.4 µM | NCI-H23 36.6 µM | UACC-62 25.9 µM | EKVX 55.1 µM

COc1ccc(C2Cc3cc(OC)c(OC)c(OC)c3C2)cc1 (centres undefined)
inactive: CCRF-CEM 32.6 µM | ACHN 39.1 µM | A498 28.6 µM | RPMI-8226 18.8 µM | NCI-H460 46.6 µM | CAKI-1 36.9 µM | MOLT-4 22.4 µM | SF-539 64.7 µM | SK-OV-3 > 100 µM | K562 20.2 µM | LOX IMVI 56.8 µM | NCI-H23 9.59 µM | UACC-62 66.1 µM | EKVX 29 µM
